The results in this text go back to US20090047244A1, “MACROCYCLIC SERINE PROTEASE INHIBITORS I” (Idenix Pharmaceuticals, Inc., priority 2007, published 2009).

For orientation: IC50 means the midpoint of a concentration-inhibition curve. A low value points to greater potency in that assay. For orientation: EC50 means the concentration giving half of the maximal effect. The term CC50 denotes the concentration at which the toxic effect on the cells reaches its halfway point. A low value points to greater toxicity to the cells.

Where two headings read alike, the source gives them in different places.

The conditions of data set [1]: rcm bond.
For data set [2], the target named is T1, HCV NS3-NS4A protease (Hepatitis C virus genotype 1a, UniProt P27958).
T1 construct: made in house
T1 sequence (P27958 1027-1208): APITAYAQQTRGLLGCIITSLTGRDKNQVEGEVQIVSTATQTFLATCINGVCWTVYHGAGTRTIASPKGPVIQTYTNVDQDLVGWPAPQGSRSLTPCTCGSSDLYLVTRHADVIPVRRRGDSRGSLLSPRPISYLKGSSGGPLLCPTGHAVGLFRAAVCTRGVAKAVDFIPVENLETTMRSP
The data set can be described thus: HCV Protease Assay (SensoLyte 620 HCV Protease Assay kit). Type of data set: biochemical. The following applies: 1.2 nM HCV NS3-NS4A protease, 5% DMSO, 60 min at room temperature. Here is the method: General procedure: Measurement of the inhibitory effect of compounds on HCV protease activity was performed with the SensoLyte™ 620 HCV Protease Assay kit from AnaSpec, Inc. (San Jose, Calif.) under conditions described by the supplier using 1.2 nM HCV NS3-NS4A protease, which was obtained according to Taremi et al. (Protein Science, 1998, 7, 2143-2149). The compounds were tested at a variety of concentrations in assay buffer containing a final DMSO concentration of 5%. Reactions were allowed to proceed for 60 min at room temperature and fluorescence measurements were recorded with a Tecan Infinity Spectrofluorimeter. The IC50 values were determined from the percent inhibition versus concentration data using a sigmoidal non-linear regression analysis based on four parameters with Tecan Magellan software.

The subject of data set [3] is Huh-7 cells containing HCV Con1 subgenomic replicon (GS4.1 cells). The data set can be described thus: HCV Replicon Assay (NS4A ELISA). Type of data set: cell-based. The settings on record: Hepatitis C virus, 72 hr, NS4A protein expression by ELISA. Here is the method: General procedure: Huh-7 cells containing HCV Con1 subgenomic replicon (GS4.1 cells) were grown in Dulbecco's Modified Eagle Medium (DMEM) supplemented with 10% fetal bovine serum (FBS), 2 mM L-glutamine, 110 mg/L sodium pyruvate, 1X non-essential amino acids, 100 U/mL penicillin-streptomycin, and 0.5 mg/mL G418 (Invitrogen). For dose-response testing, the cells were seeded in 96-well plates at 7.5×10^3 cells/well in a volume of 50 μL, and incubated at 37° C./5% CO2. Three hours after plating, 50 μL of ten 2-fold serial dilutions of compounds (highest concentration, 75 μM) were added, and cell cultures were incubated at 37° C./5% CO2 in the presence of 0.5% DMSO. Alternatively, compounds were tested at a single concentration of 15 μM. In all cases, Huh-7 cells lacking the HCV replicon served as negative control. The cells were incubated in the presence of compounds for 72 hr after which they were monitored for expression of the NS4A protein by enzyme-linked immunosorbent assay (ELISA). For this, the plates were then fixed for 1 min with acetone/methanol (1:1, v/v), washed twice with phosphate-buffered saline (PBS), 0.1% Tween 20, blocked for 1 hr at room temperature with TNE buffer containing 10% FBS and then incubated for 2 hr at 37° C. with the anti-NS4A mouse monoclonal antibody A-236 (ViroGen) diluted in the same buffer. After washing three times with PBS, 0.1% Tween 20, the cells were incubated 1 hr at 37° C. with anti-mouse immunoglobulin G-peroxidase conjugate in TNE, 10% FBS. After washing as described above, the reaction was developed with O-phenylenediamine (Zymed). The reaction was stopped after 30 min with 2 N H2SO4, and absorbance was read at 492 nm using Sunrise Tecan spectrophotometer. EC50 values were determined from the % inhibition versus concentration data using a sigmoidal non-linear regression analysis based on four parameters with Tecan Magellan software. When screening at a single concentration, the results were expressed as % inhibition at 15 μM.

Data set [4] is described as follows: Cytotoxicity evaluation (Cell Titer 96 AQueous One Solution Cell Proliferation Assay). Type of data set: cell-based. The settings on record: human; GS4.1 cells, cellular viability. Here is the method: For cytotoxicity evaluation, GS4.1 cells were treated with compounds as described above and cellular viability was monitored using the Cell Titer 96 AQueous One Solution Cell Proliferation Assay (Promega). CC50 values were determined from the % cytotoxicity versus concentration data with Tecan Magellan software as described above.

The compound `CCOC(=O)[C@@]12C[C@H]1C=CCCCCCN(C)C(=O)N[C@@H](CCOc1cc(-c3ccccc3)nc3cc(OC)ccc13)C(=O)N2` showed a ring closure, yield of all isomers in data set [1] (from C=CCCCCCN(C)C(=O)N[C@@H](CCOc1cc(-c2ccccc2)nc2cc(OC)ccc12)C(=O)N[C@]1(C(=O)OCC)C[C@H]1C=C, Hoveyda-Grubbs 1st generation, DCM, 1.6 mM, 40.0 °C, 16.0 h) of 64%.
With `CCOC(=O)[C@@]12C[C@H]1C=CCCCCN(C)C(=O)N[C@@H](CCOc1cc(-c3ccccc3)nc3cc(OC)ccc13)C(=O)N2`, the ring closure, yield of all isomers in data set [1] (from C=CCCCCN(C)C(=O)N[C@@H](CCOc1cc(-c2ccccc2)nc2cc(OC)ccc12)C(=O)N[C@]1(C(=O)OCC)C[C@H]1C=C, Hoveyda-Grubbs 1st generation, DCM, 1.6 mM, 40.0 °C, 16.0 h) came to 22%.
`COc1ccc2c(OCC[C@@H]3NC(=O)N(C)CCCCC=C[C@@H]4C[C@@]4(C(=O)NS(=O)(=O)C4CC4)NC3=O)cc(-c3ccccc3)nc2c1` came in with a ring closure, yield of all isomers in data set [1] (from C=CCCCCN(C)C(=O)N[C@@H](CCOc1cc(-c2ccccc2)nc2cc(OC)ccc12)C(=O)N[C@]1(C(=O)NS(=O)(=O)C2CC2)C[C@H]1C=C, Hoveyda-Grubbs 2nd generation, DCM, 1.5 mM, 100.0 °C, 1.0 h) of 7.9%.
For the compound `CCOC(=O)[C@@]12C[C@H]1C=CCCCCN(C)C(=O)N[C@@H](CO[Si](C)(C)C(C)(C)C)C(=O)N2`, the ring closure, yield of all isomers in data set [1] (from C=CCCCCN(C)C(=O)N[C@@H](CO[Si](C)(C)C(C)(C)C)C(=O)N[C@]1(C(=O)OCC)C[C@H]1C=C, Hoveyda-Grubbs 1st generation, 1,2-dichloroethane, 9.9 mM, 70.0 °C, 16.0 h) stood at 48.1%.
As to `CCOC(=O)[C@@]12C[C@H]1/C=C\CCCCN(C)C(=O)N[C@@H](CCO[Si](C)(C)C(C)(C)C)C(=O)N2`, the ring closure, yield of all isomers in data set [1] (from C=CCCCCN(C)C(=O)N[C@@H](CCO[Si](C)(C)C(C)(C)C)C(=O)N[C@]1(C(=O)OCC)C[C@H]1C=C, Hoveyda-Grubbs 1st generation, DCM, 1.96 mM, 40.0 °C, 24.0 h) amounted to 50%.
The compound `COc1ccc2c(OCC[C@@H]3NC(=O)N(C)CCCC/C=C\[C@@H]4C[C@@]4(C(=O)S(=O)(=O)C4(C)CC4)NC3=O)cc(-c3ccn(Cc4ccccc4)n3)nc2c1C` returned an IC50 in data set [2] of less than 0.1 µM. This compound also gave an EC50 in data set [3] of 0.1 to 10 µM. This compound had a CC50 in data set [4] greater than 1000 µM.
For `COc1ccc2c(C(=O)OCC[C@@H]3NC(=O)N(C)CCCC/C=C\[C@@H]4C[C@@]4(C(=O)NS(=O)(=O)C4CC4)NC3=O)cc(-c3ccccc3)nc2c1` the same measures were 0.1 to 10 µM, greater than 1000 µM and greater than 1000 µM.
For `COc1ccc2c(OCCC3NC(=O)N(C)CCCC/C=C\C4CC4(C(=O)NS(=O)(=O)C4(C#N)CC4)NC3=O)cc(-c3nc(C(C)C)cs3)nc2c1Cl` (centres unmarked), in that order: less than 0.1 µM, 0.1 to 10 µM and greater than 1000 µM.
In data set [2], `CCCn1ccc(-c2cc(OCC[C@@H]3NC(=O)N(C)CCCC/C=C\[C@@H]4C[C@@]4(C(=O)NS(=O)(=O)C4(C)CC4)NC3=O)c3ccc(OC)c(C)c3n2)n1` had a concentration for half-maximal inhibition (IC50) of less than 0.1 µM. The EC50 in data set [3] lay in the range of 0.1 to 10 µM. The same compound had a half-maximal cytotoxic concentration (CC50) in data set [4] greater than 1000 µM.
For the compound `COc1ccc2c(OCC[C@@H]3NC(=O)N(C)CCCC/C=C\[C@@H]4C[C@@]4(C(=O)NS(=O)(=O)C4(C)CC4)NC3=O)cc(-c3ccn(CC(C)C)n3)nc2c1C`, the half-inhibitory concentration (IC50) in data set [2] was less than 0.1 µM. The compound also gave a half-maximal effective concentration (EC50) in data set [3] of 0.1 to 10 µM. The CC50 in data set [4] is greater than 1000 µM.
